{"source": "patent US10655183B2", "about": "“Carcinoma diagnosis and treatment based on ODC1 genotype” (THE ARIZONA BOARD OF REGENTS ON BEHALF OF THE UNIVERSITY OF …, priority 2014, dated 2020)", "key": {"COX": {"system": "COX", "conditions": "cited from earlier work"}, "rat-tumor model": {"system": "rat-tumor model", "conditions": "DFMO infusion; cited from earlier work"}, "humans": {"system": "humans", "conditions": "low doses of 0.4 g/m^2/day; cited from earlier work"}, "[1]": {"system": "prostoglandin E2 (PGE2) levels in flat mucosa", "conditions": "300 mg/day, one month; cited from earlier work"}, "[2]": {"system": "ODC1 +263 G promoter/intron 1 luciferase plasmid", "assay": "ODC1 promoter/intron 1 luciferase reporter transfection in HCT116 cells", "format": "cell-based, human", "conditions": "2 μM NSC176327, 24 h, normalized to time-matched DMSO", "experimental": "(§1) HCT116 cells were transfected in 24-well plates. Cells were seeded at 0.1×10^6 cells/well 24 h prior transfection. Each well was transfected with 0.25 μg of each plasmid and 0.025 μg of Renilla-TK plasmid using 2.5 μL Lipofectamine 2000 reagent (Invitrogen) according to the manufacturer's instructions. The Renilla-TK plasmid was purchased from Promega and used as a transfection efficiency control in all promoter-reporter transfection experiments. For the overexpression experiments, ODC1 pGL3-Basic or Enhancer plasmids were co-transfected with the corresponding plasmid: pcDNA 3.0 empty vector, pcDNA3-c-MYC expression vector (Ricci et al., 2004) (Addgene plasmid 16011), full-length pN3-Sp1FL (Sapetschnig et al., 2004) (Addgene plasmid 24543), pN3-empty control (Addgene plasmid 24544), N-terminal mutate pPac-Sp1 (Courey and Tjian, 1988) (Addgene plasmid 12095) and pPac0 empty vector (Courey and Tjian, 1988) (Addgene plasmid 12094). After 5 h of transfection, the medium was replaced with fresh normal medium in the absence of antibiotics. […] Dual luciferase activities were measured using a Turner Designs TD-20/20 luminometer, as described by the manufacturer, and presented as relative luciferase units. Experiments were performed in triplicate, repeated at least twice, and analyzed for statistical significance (P<0.05) using two-sample t-tests (Microsoft Excel). […]"}, "[3]": {"system": "ODC1 +263 T promoter/intron 1 luciferase plasmid", "assay": "ODC1 promoter/intron 1 luciferase reporter transfection in HCT116 cells", "format": "cell-based, human", "conditions": "2 μM NSC176327, 24 h, normalized to time-matched DMSO", "experimental": "as §1"}, "[4]": {"system": "HCT116 colorectal cancer cells", "assay": "HCT116 24 h IC50 and cell viability", "format": "cell-based, human"}, "[5]": {"conditions": "cited from earlier work"}, "patients": {"system": "patients", "conditions": "human, in vivo; cited from earlier work"}}}
{"smiles": "CC1=C(CC(=O)O)c2cc(F)ccc2/C1=C\\c1ccc(S(C)(=O)=O)cc1", "note": "[Sulindac sulfone]", "values": [{"measurement": "COX-inhibitory activity", "setting": "COX", "result": "lacks COX-inhibitory activity"}]}
{"smiles": "NCCCC(N)(C(=O)O)C(F)F", "note": "(racemic) [DFMO, 2-(difluoromethyl)-dl-ornithine]", "values": [{"measurement": "decrease in tumor putrescine levels", "setting": "rat-tumor model", "result": 90, "unit": "%"}, {"measurement": "toxicity", "setting": "humans", "result": "relatively non-toxic"}]}
{"smiles": "CC(C)Cc1ccc(C(C)C(=O)O)cc1", "note": "(centres unmarked) [ibuprofen]", "values": [{"measurement": "PGE2 levels in flat mucosa", "setting": "[1]", "result": "significant decrease"}]}
{"smiles": "COc1ccc2c(c1)c1c(C)c3cnccc3c(C)c1n2CCCN", "note": "[NSC176327]", "values": [{"measurement": "reduction of ODC1-luciferase reporter expression", "setting": "[2]", "result": 43.6, "unit": "%"}, {"measurement": "reduction of ODC1-luciferase reporter expression", "setting": "[3]", "result": 47.5, "unit": "%"}, {"measurement": "IC50", "setting": "[4]", "result": 2000, "unit": "nM"}]}
{"smiles": "CC1=C(CC(=O)O)c2cc(F)ccc2/C1=C\\c1ccc([S+](C)[O-])cc1", "note": "(centres unmarked) [sulindac, (Z)-5-fluoro-2-methyl-1-((4 (methylsulfinyl)phenyl)methylene) 1H-indene-3-acetic acid]", "values": [{"measurement": "fraction of the drug absorbed", "setting": "[5]; oral administration", "result": "about 90%"}, {"measurement": "time to peak plasma levels", "setting": "[5]; oral, fasting patients", "result": "about 2 h"}, {"measurement": "patients with mild gastrointestinal effects", "setting": "patients", "result": "~20", "unit": "%"}, {"measurement": "patients with skin rash and pruritus", "setting": "patients", "result": 5, "unit": "%"}]}
